Source: patent US11072588B2, “Barbituric acid derivatives comprising cationic and lipophilic groups” (UNIVERSITETET I TROMSØ—NORGES ARKTISKE UNIVERSITET, priority 2017, dated 2021)
Values after ≈ are worked out from the molar mass of the structure shown. Where two headings read alike, the source gives them in different places.

Tests used:
[1] = system: antibiotic susceptible Gram-positive and Gram-negative reference strains; test: MIC assay, ranges over the reference strains; assay type: cell-based
Description: (§1) Working solutions of the test derivatives were prepared with up to 100% DMSO and stored at −20° C. If necessary, the solutions were heated to 40-80° C. before testing to facilitate complete dissolution. Double-distilled water was used in all dilutions prepared. […] A microdilution susceptibility test was used for MIC determination according to Clinical and Laboratory Standards Institute, “Methods for Dilution Antimicrobial Sisceptibility Tests for Bacteria That Graw Aerobically”, Approved Standard M07-A9, edition 2012, with modifications as described by Igumnova et al (Bioorg Med Chem, 2016, 24 (22), 5884-5894).
(§2) Briefly, the bacterial inoculum was adjusted to approximately 2.5-3×10^4 cells/mL in Mueller-Hinton broth (MHB, Difco Laboratories, USA), and incubated in a ratio of 1:1 with test derivatives in polystyrene 96-well flat-bottom microplates (NUNC, Roskilde, Denmark). Positive growth control (without test derivatives) and negative control (without bacteria) were included. The reference antibiotic was oxytetracycline hydrochloride (Sigma Aldrich, Saint Louis, Mo., USA). The microplates were incubated in an EnVision microplate reader (Perkin-Elmer, Turku, Finland) placed in an incubator set to 35° C. for 48 h. The MIC value was defined as the lowest concentration of derivative resulting in no bacterial growth as determined by OD600 measurement. All derivatives were tested in three parallels.

[2] = Determination of haemolytic activity; assay type: cell-based; conditions: human red blood cells (washed, from heparinized fresh blood); human RBCs, 1 h, 37° C.; read-out: RBC: haemolytic activity against human RBCs (EC50)
Description: Hemolysis was determined using a heparinized fraction (1000 IU/mL) of freshly drawn blood. Blood collected in EDTA containing test tubes (Vacutest®, KIMA, Arzergrande, Italy) was used for determination of the hematocrit (hct). The heparinized blood was washed 3× with pre-warmed PBS and adjusted to a final hct of 4%. Derivatives in DMSO (50 mM) were added to a 96-well polypropylene V-bottom plate (NUNC, Fisher Scientific, Oslo, Norway) and serially diluted. The test concentration range was 500-4 μM with DMSO contents ≤1%. A solution of 1% triton X-100 was used as positive control for 100% hemolysis. As negative control a solution of 1% DMSO in PBS buffer was included. No signs of DMSO toxicity were detected. RBCs (1% v/v final concentration) were added to the well plate and incubated at 37° C. and 800 rpm for 1 h. After centrifugation (5 min, 3000 g), 100 μL of each well were transferred to a 96-well flat bottom plate and absorbance was measured at 545 nm with a microplate reader (VersaMax™, Molecular Devices, Sunnyvale, Calif., USA). The percentage of hemolysis was calculated as the ratio of the absorbance in the derivative-treated and surfactant treated samples, corrected for the PBS background. Three independent experiments were performed and EC50 values are presented as averages.

[3] = system: S. aureus NCTC 10442; test: MIC, multi-resistant clinical isolate; assay type: cell-based, Staphylococcus aureus; conditions: for selectivity index (EC50/MIC): RBC EC50 / MIC, S. aureus NCTC 10442; for MIC: Staphylococcus aureus, NCTC10442, read-out: Antimicrobial activity (MIC)
Description: as §1, §2
(§3) The MIC was determined as explained above with some exceptions; working solutions of test derivatives were prepared from concentrated DMSO stocks stored at room temperature, the density of the bacterial inoculum was increased 40× to 1-1.2×10^6 cells/mL, enterococci were incubated in Brain Heart Infusion broth (BHIB, Difco Laboratories, USA), the microplates were incubated for 24 h, and the derivatives were tested in four parallels.

[4] = system: S. aureus strain WIS; test: MIC, multi-resistant clinical isolate; assay type: cell-based, Staphylococcus aureus; conditions: for selectivity index (EC50/MIC): RBC EC50 / MIC, S. aureus strain WIS; for MIC: Staphylococcus aureus, read-out: Antimicrobial activity (MIC)
Description: as §1, §2, §3

[5] = system: S. aureus N315; test: MIC, multi-resistant clinical isolate; assay type: cell-based, Staphylococcus aureus; conditions: for selectivity index (EC50/MIC): RBC EC50 / MIC, S. aureus N315; for MIC: Staphylococcus aureus, N315, read-out: Antimicrobial activity (MIC)
Description: as §1, §2, §3

[6] = system: S. aureus IHT 99040; test: MIC, multi-resistant clinical isolate; assay type: cell-based, Staphylococcus aureus; conditions: for selectivity index (EC50/MIC): RBC EC50 / MIC; for MIC: Staphylococcus aureus, IHT99040, read-out: Antimicrobial activity (MIC)
Description: as §1, §2, §3

[7] = system: S. aureus strain 85/2082; test: MIC, multi-resistant clinical isolate; assay type: cell-based, Staphylococcus aureus; conditions: for selectivity index (EC50/MIC): RBC EC50 / MIC, S. aureus strain 85/2082; for MIC: Staphylococcus aureus, 85/2082, read-out: Antimicrobial activity (MIC)
Description: as §1, §2, §3

[8] = system: A. baumanii K55-13; test: MIC, multi-resistant clinical isolate; assay type: cell-based, Acinetobacter baumannii; conditions: for MIC: Acinetobacter baumannii, K5513, read-out: Antimicrobial activity (MIC); for selectivity index (EC50/MIC): RBC EC50 / MIC
Description: as §1, §2, §3

[9] = system: A. baumanii K44-35; test: MIC, multi-resistant clinical isolate; assay type: cell-based, Acinetobacter baumannii; conditions: for MIC: Acinetobacter baumannii, K4435, read-out: Antimicrobial activity (MIC); for selectivity index (EC50/MIC): RBC EC50 / MIC
Description: as §1, §2, §3

[10] = system: A. baumanii K12-21; test: MIC, multi-resistant clinical isolate; assay type: cell-based, Acinetobacter baumannii; conditions: for MIC: Acinetobacter baumannii, K1221, read-out: Antimicrobial activity (MIC); for selectivity index (EC50/MIC): RBC EC50 / MIC
Description: as §1, §2, §3

[11] = system: A. baumanii K47-42; test: MIC, multi-resistant clinical isolate; assay type: cell-based, Acinetobacter baumannii; conditions: for MIC: Acinetobacter baumannii, K4742, read-out: Antimicrobial activity (MIC); for selectivity index (EC50/MIC): RBC EC50 / MIC
Description: as §1, §2, §3

[12] = system: E. faecium TUH50-22; test: MIC, multi-resistant clinical isolate; assay type: cell-based, Enterococcus faecium; conditions: for MIC: Enterococcus faecium, TUH5022, read-out: Antimicrobial activity (MIC); for selectivity index (EC50/MIC): RBC EC50 / MIC
Description: as §1, §2, §3

[13] = system: E. faecium 50901530; test: MIC, multi-resistant clinical isolate; assay type: cell-based, Enterococcus faecium; conditions: for MIC: Enterococcus faecium, read-out: Antimicrobial activity (MIC); for selectivity index (EC50/MIC): RBC EC50 / MIC
Description: as §1, §2, §3

[14] = system: E. faecium 50673722; test: MIC, multi-resistant clinical isolate; assay type: cell-based, Enterococcus faecium; conditions: for MIC: Enterococcus faecium, read-out: Antimicrobial activity (MIC); for selectivity index (EC50/MIC): RBC EC50 / MIC
Description: as §1, §2, §3

[15] = system: E. faecium K36-18; test: MIC, multi-resistant clinical isolate; assay type: cell-based, Enterococcus faecium; conditions: for MIC: Enterococcus faecium, K3618, read-out: Antimicrobial activity (MIC); for selectivity index (EC50/MIC): RBC EC50 / MIC, E. faecium K36-18
Description: as §1, §2, §3

[16] = system: E. faecium 50758899; test: MIC, multi-resistant clinical isolate; assay type: cell-based, Enterococcus faecium; conditions: for MIC: Enterococcus faecium, read-out: Antimicrobial activity (MIC); for selectivity index (EC50/MIC): RBC EC50 / MIC
Description: as §1, §2, §3

[17] = system: S. epidermidis; test: Anti-biofilm activity (inhibition of biofilm formation); assay type: cell-based; conditions: Staphylococcus epidermidis, read-out: Anti-biofilm IC50
[18] = reference strains, range, read-out: MIC values against the Gram-negative bacteria E. coli and P. aeruginosa

Structure (SMILES)	EC50 at 1 h [2]	selectivity index (EC50/MIC) [3]	MIC [3]	selectivity index (EC50/MIC) [4]	MIC [4]	selectivity index (EC50/MIC) [5]	MIC [5]	selectivity index (EC50/MIC) [6]	MIC [6]	selectivity index (EC50/MIC) [7]	MIC [7]	MIC [8]	selectivity index (EC50/MIC) [8]	MIC [9]	selectivity index (EC50/MIC) [9]	MIC [10]	selectivity index (EC50/MIC) [10]	MIC [11]	selectivity index (EC50/MIC) [11]	MIC [12]	further results
N=C(N)NCCCCN1C(=O)N(CCCCNC(=N)N)C(=O)C(Cc2ccc(F)c3ccccc23)(Cc2ccc(F)c3ccccc23)C1=O [8(v), 1,1′-(4,4′-(5,5-bis((4-fluoronaphthalen-1-yl)methyl)-2,4,6-trioxodihydropyrimidine-1,3(2H,4H)-diyl)bis(butane-4,1-diyl))diguanidine]	88 µg/mL (≈ 131 µM)	(44)	2 µg/mL (≈ 2.98 µM)	(44)	2 µg/mL (≈ 2.98 µM)	(44)	2 µg/mL (≈ 2.98 µM)	(44)	2 µg/mL (≈ 2.98 µM)	(44)	2 µg/mL (≈ 2.98 µM)	8 µg/mL (≈ 11.9 µM)	(11)	8 µg/mL (≈ 11.9 µM)	(11)	8 µg/mL (≈ 11.9 µM)	(11)	8 µg/mL (≈ 11.9 µM)	(11)	4 µg/mL (≈ 5.96 µM)	MIC [1, 18]: 1 to 4 µg/mL (≈ 1.49 to 5.96 µM); selectivity index (EC50/MIC) [12]: (22); MIC [13]: 4 µg/mL (≈ 5.96 µM); selectivity index (EC50/MIC) [13]: (22); MIC [14]: 4 µg/mL (≈ 5.96 µM); selectivity index (EC50/MIC) [14]: (22); MIC [15]: 4 µg/mL (≈ 5.96 µM); selectivity index (EC50/MIC) [15]: (22); MIC [16]: 4 µg/mL (≈ 5.96 µM); selectivity index (EC50/MIC) [16]: (22); IC50 [17]: 1 µg/mL (≈ 1.49 µM)
CC(C)(C)c1ccc(CC2(Cc3ccc(C(C)(C)C)cc3)C(=O)N(CCCCN)C(=O)N(CCCCN)C2=O)cc1 [Compound 7(i), 1,3-bis(4-aminobutyl)-5,5-bis(4-tertbutylbenzyl) pyrimidin-2,4,6(1H,3H,5H)-trione]	143 µg/mL (≈ 254 µM)	(18)	8 µg/mL (≈ 14.2 µM)	(18)	8 µg/mL (≈ 14.2 µM)	(18)	8 µg/mL (≈ 14.2 µM)	(18)	8 µg/mL (≈ 14.2 µM)	(18)	8 µg/mL (≈ 14.2 µM)	16 µg/mL (≈ 28.4 µM)	(9)	32 µg/mL (≈ 56.9 µM)	(4)	16 µg/mL (≈ 28.4 µM)	(9)	16 µg/mL (≈ 28.4 µM)	(9)	8 µg/mL (≈ 14.2 µM)	MIC ([1]; range over S. aureus, C. glutamicum, E. coli, P. aeruginosa reference strains, read-out: MIC values against all the reference strains): 1 to 8 µg/mL (≈ 1.78 to 14.2 µM); selectivity index (EC50/MIC) [12]: (18); MIC [13]: 4 µg/mL (≈ 7.11 µM); selectivity index (EC50/MIC) [13]: (36); MIC [14]: 8 µg/mL (≈ 14.2 µM); selectivity index (EC50/MIC) [14]: (18); MIC [15]: 8 µg/mL (≈ 14.2 µM); selectivity index (EC50/MIC) [15]: (18); MIC [16]: 8 µg/mL (≈ 14.2 µM); selectivity index (EC50/MIC) [16]: (18); IC50 [17]: 4 µg/mL (≈ 7.11 µM)
CC(C)(C)c1ccc(CC2(Cc3ccc(C(C)(C)C)cc3)C(=O)N(CCCCNC(=N)N)C(=O)N(CCCCNC(=N)N)C2=O)cc1 [Compound 8(i), 1,1′-(4,4′-(5,5-bis(4-tert-butylbenzyl)-2,4,6-trioxodihydropyrimidine-1,3(2H,4H)-diyl)bis(butane-4,1-diyl))diguanidine]	77 µg/mL (≈ 119 µM)	(39)	2 µg/mL (≈ 3.09 µM)	(39)	2 µg/mL (≈ 3.09 µM)	(39)	2 µg/mL (≈ 3.09 µM)	(39)	2 µg/mL (≈ 3.09 µM)	(39)	2 µg/mL (≈ 3.09 µM)	8 µg/mL (≈ 12.4 µM)	(10)	8 µg/mL (≈ 12.4 µM)	(10)	4 µg/mL (≈ 6.18 µM)	(19)	8 µg/mL (≈ 12.4 µM)	(10)	2 µg/mL (≈ 3.09 µM)	MIC [1, 18]: 1 to 4 µg/mL (≈ 1.55 to 6.18 µM); selectivity index (EC50/MIC) [12]: (39); MIC [13]: 4 µg/mL (≈ 6.18 µM); selectivity index (EC50/MIC) [13]: (19); MIC [14]: 2 µg/mL (≈ 3.09 µM); selectivity index (EC50/MIC) [14]: (39); MIC [15]: 2 µg/mL (≈ 3.09 µM); selectivity index (EC50/MIC) [15]: (39); MIC [16]: 2 µg/mL (≈ 3.09 µM); selectivity index (EC50/MIC) [16]: (39); IC50 [17]: 1 µg/mL (≈ 1.55 µM)
